Test system: Bloodstream form of Trypanosoma brucei, strain Lister 427
Assay: Trypanosoma brucei growth inhibition assay (CellTiter-Glo, 24 h)
Format: cell-based
Details: Trypanosoma brucei; T. Brucei Growth Inibition Assay, class symbols; read-out: T. Brucei GI EC50
How it was run: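 Bloodstream-form T. brucei Lister 427, 1500 parasites per well in supplemented IMDM with 10% FBS, were exposed to compound (DMSO ≤0.25% final) for 24 h at 37 °C. Viability was measured by CellTiter-Glo luminescence.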

Row | SMILES | EC50 [nM]
1 | COc1cc2nc(C(F)(F)F)n(CC(=O)N3CCN(CC4CCOC4)C[C@H]3c3ncc(-c4cc5ccccc5nc4OC)[nH]3)c2cc1OC (stereo partly drawn) [2-(5,6-dimethoxy-2-(trifluoromethyl)-1H-benzo[d]imidazol-1-yl)-1-((2S)-2-(5-(2-methoxyquinolin-3-yl)-1H-imidazol-2-yl)-4-((tetrahydrofuran-3-yl)methyl)piperazin-1-yl)ethan-1-one] | < 100
2 | O=C(Cc1nc2ccccc2o1)N1CCN(CC2CC2)CC1c1ncc(-c2ccc3ccccc3c2)[nH]1 (stereo not shown) | 1010 to 5000
3 | O=C(Cc1nc2ccccc2o1)N1CCN(CC2CCOC2)CC1c1ncc(-c2ccc3ccccc3c2)[nH]1 (stereo not shown) | 510 to 1000
4 | COc1ccc2nc(O)cc(C(=O)N3CCN(CC4CCOC4)CC3c3ncc(-c4cc5ccccc5nc4OC)[nH]3)c2c1 (stereo not shown) | 1010 to 5000
5 | COC(=O)CCCN1CCN(C(=O)Cc2c(C)[nH]c3ccc(OC)cc23)C(c2ncc(-c3ccc4ccccc4c3)[nH]2)C1 (stereo not shown) | 100 to 500
6 | COc1ccc2nc(C(F)(F)F)n(CC(=O)N3CCN(CCc4csc(C)n4)CCC3c3ncc(-c4cc5ccccc5nc4OC)[nH]3)c2c1 (stereo not shown) | 100 to 500
7 | COc1nc2ccccc2cc1-c1cnc(C2CNCCN2C(=O)Cc2ccccc2)[nH]1 (stereo not shown) | 1010 to 5000
8 | CCC(=O)CCCN1CCN(C(=O)Cc2c[nH]c3ncccc23)C(c2ncc(-c3cc4ccccc4nc3OC)[nH]2)C1 (stereo not shown) | 510 to 1000
9 | COc1nc2ccccc2cc1-c1cnc(C2CN(C(C)=O)CCN2C(=O)Cc2ccccc2)[nH]1 (stereo not shown) | 1010 to 5000
10 | COc1nc2ccccc2cc1-c1cnc(C2CN(C(=O)OCc3ccccc3)CCN2C(=O)Cc2c(C)[nH]c3ccc(F)cc23)[nH]1 (stereo not shown) | 1010 to 5000
11 | COc1nc2ccccc2cc1-c1cnc([C@@H]2CN(CC3CCOC3)CCN2C(=O)C(C)(C)n2c(C(F)(F)F)nc3ccccc32)[nH]1 (stereo partly shown) | 1010 to 5000
12 | COc1ccc2nc(C(F)(F)F)n(CC(=O)N3CC[C@@H](NC4CCOC4)C[C@H]3c3ncc(-c4cc5ccccc5nc4OC)[nH]3)c2c1 (stereo partly shown) | 100 to 500
13 | COc1ccc2nc(C(F)(F)F)n(CC(=O)N3CC[C@H](N(Cc4ccn(C)n4)C(C)C)C[C@H]3c3ncc(-c4cc5ccccc5nc4OC)[nH]3)c2c1 [1-((2S,4S)-4-(isopropyl((1-methyl-1H-pyrazol-3-yl)methyl)amino)-2-(5-(2-methoxyquinolin-3-yl)-1H-imidazol-2-yl)piperidin-1-yl)-2-(6-methoxy-2-(trifluoromethyl)-1H-benzo[d]imidazol-1-yl)ethan-1-one] | < 100
14 | CNC(=O)CCCN1CCN(C(=O)Cc2c(C)[nH]c3ccc(OC)cc23)C(c2ncc(-c3ccc4ccccc4c3)[nH]2)C1 (stereo not shown) | 100 to 500
15 | COc1nc2ccccc2cc1-c1cnc(C2CS(=O)(=O)CCN2C(=O)Cn2nc(C)c3ccccc3c2=O)[nH]1 (stereo not shown) | 1010 to 5000
16 | COc1ccc2nc(C(F)(F)F)n(CC(=O)N3CCN(Cc4cn[nH]c4)CCC3c3ncc(-c4cc5ccccc5nc4OC)[nH]3)c2c1 (stereo not shown) | 100 to 500
17 | COc1nc2ccccc2cc1-c1cnc(C2CN(CC3CCOC3)CCN2C(=O)Cc2sc3ccccc3c2C)[nH]1 (stereo not shown) | 100 to 500
18 | COc1nc2ccccc2cc1-c1cnc(C2CN(Cc3cocn3)CCN2C(=O)Cc2c(C)[nH]c3ccc(F)cc23)[nH]1 (stereo not shown) | 100 to 500
19 | COc1ccc2nc(C)n(CC(=O)N3CCN(CC4CCOC4)C[C@H]3c3ncc(-c4ccc5ccccc5n4)[nH]3)c2c1 (stereo partly shown) | 1010 to 5000
20 | COc1ccc2nc(C)n(CC(=O)N3CCN(CC4CCOC4)C[C@H]3c3ncc(-c4cc5ccccc5cn4)[nH]3)c2c1 (stereo partly drawn) [1-((2S)-2-(5-(isoquinolin-3-yl)-1H-imidazol-2-yl)-4-((tetrahydrofuran-3-yl)methyl)piperazin-1-yl)-2-(6-methoxy-2-methyl-1H-benzo[d]imidazol-1-yl)ethan-1-one] | 100 to 500
21 | COc1nc2ccccc2cc1-c1cnc(C2CN(CC3CCOC3)CCN2C(=O)c2ccc(C3CCCO3)s2)[nH]1 (stereo not shown) | 1010 to 5000
22 | COc1nc2ccccc2cc1-c1cnc([C@@H]2CN(CC3COC3)CCN2C(=O)Cn2c(C(F)(F)F)nc3ccccc32)[nH]1 [(S)-1-(2-(5-(2-methoxyquinolin-3-yl)-1H-imidazol-2-yl)-4-(oxetan-3-ylmethyl)piperazin-1-yl)-2-(2-(trifluoromethyl)-1H-benzo[d]imidazol-1-yl)ethan-1-one] | < 100

From patent US10815222B2, “Compounds for use in the treatment of kinetoplastid infection” (C.N.C.C.S. S.c.a.r.l. COLLEZIONE NAZIONALE DEI COMPOSTI …, priority 2016, dated 2020)
